Results from ChEMBL document CHEMBL3885881, “DrugMatrix”.

Species: Rattus norvegicus
Type: toxicity, organism-based, Sprague-Dawley
Settings: in vivo, po, route oral GAVAGE, vehicle 100 % SALINE; for ABSOLUTE EOSINOPHIL / ABSOLUTE LYMPHOCYTE / ABSOLUTE MONOCYTE / ABSOLUTE SEGMENTED NEUTROPHIL / BASOPHIL / EOSINOPHIL / ERYTHROCYTE COUNT / HEMATOCRIT / HEMOGLOBIN / LEUKOCYTE COUNT / LYMPHOCYTE / MEAN CORPUSCULAR HEMOGLOBIN / MEAN CORPUSCULAR HEMOGLOBIN CONCENTRATION / MEAN CORPUSCULAR VOLUME / MONOCYTE / NEUTROPHIL / NUCLEATED RED BLOOD CELLS / PLATELET COUNT: tissue Blood; for ALANINE AMINOTRANSFERASE / ALBUMIN / ALKALINE PHOSPHATASE / ASPARTATE AMINOTRANSFERASE / BLOOD UREA NITROGEN / CARBON DIOXIDE / CHLORIDE / CHOLESTEROL / CREATINE PHOSPHOKINASE / CREATININE / GLUCOSE / LACTATE DEHYDROGENASE / LIPASE / PHOSPHORUS / POTASSIUM / SODIUM / TOTAL BILIRUBIN / TOTAL PROTEIN / URIC ACID: tissue Plasma
[1] = 0 mg/kg, 6 h, vehicle control, dose level Control, time 0.25 day
[2] = 0 mg/kg, 24 h, vehicle control, dose level Control, time 1 day
[3] = 10 mg/kg, 6 h, dose level Low, time 0.25 day

Description: DrugMatrix - Regimen: Single

SMILES: O=[As][O-].[Na+] [SODIUM ARSENITE]
- ABSOLUTE EOSINOPHIL [1]: 24 CELLS/uL
- ABSOLUTE LYMPHOCYTE [1]: 11958.17 CELLS/uL
- ABSOLUTE MONOCYTE [1]: 398.83 CELLS/uL
- ABSOLUTE SEGMENTED NEUTROPHIL [1]: 1252.33 CELLS/uL
- BASOPHIL [1]: 0%
- EOSINOPHIL [1]: 0.17%
- ERYTHROCYTE COUNT [1]: 5.37 x10E6/uL
- HEMATOCRIT [1]: 35.6%
- HEMOGLOBIN [1]: 13.05 G/DL
- LEUKOCYTE COUNT [1]: 13.63 x10E3/uL
- LYMPHOCYTE [1]: 87.67%
- MEAN CORPUSCULAR HEMOGLOBIN [1]: 24.28 pg
- MEAN CORPUSCULAR HEMOGLOBIN CONCENTRATION [1]: 36.67 G/DL
- MEAN CORPUSCULAR VOLUME [1]: 66.28 fL
- MONOCYTE [1]: 2.83%
- NEUTROPHIL [1]: 9.33%
- NUCLEATED RED BLOOD CELLS [1]: 0 /100WBC
- PLATELET COUNT [1]: 947.83 x10E3/uL
- ALANINE AMINOTRANSFERASE [1]: 51 u/L
- ALBUMIN [1]: 4.02 G/DL
- ALKALINE PHOSPHATASE [1]: 312.33 u/L
- ASPARTATE AMINOTRANSFERASE [1]: 98.17 u/L
- BLOOD UREA NITROGEN [1]: 9.5 mg/dL
- CARBON DIOXIDE [1]: 18.83 mmol/L
- CHLORIDE [1]: 103.5 MEQ/L
- CHOLESTEROL [1]: 69.5 mg/dL
- CREATINE PHOSPHOKINASE [1]: 580.17 u/L
- CREATININE [1]: 0.53 mg/dL
- GLUCOSE [1]: 175.67 mg/dL
- LACTATE DEHYDROGENASE [1]: 295.5 u/L
- LIPASE [1]: 8.17 u/L
- PHOSPHORUS [1]: 14.12 mg/dL
- POTASSIUM [1]: 5.77 MEQ/L
- SODIUM [1]: 144.13 MEQ/L
- TOTAL BILIRUBIN [1]: 0.12 mg/dL
- TOTAL PROTEIN [1]: 4.87 G/DL
- URIC ACID [1]: 2.25 mg/dL
- ABSOLUTE EOSINOPHIL [2]: 0 CELLS/uL
- ABSOLUTE LYMPHOCYTE [2]: 12232.83 CELLS/uL
- ABSOLUTE MONOCYTE [2]: 20.33 CELLS/uL
- ABSOLUTE SEGMENTED NEUTROPHIL [2]: 780.17 CELLS/uL
- BASOPHIL [2]: 0%
- EOSINOPHIL [2]: 0%
- ERYTHROCYTE COUNT [2]: 5.18 x10E6/uL
- HEMATOCRIT [2]: 33.48%
- HEMOGLOBIN [2]: 13.22 G/DL
- LEUKOCYTE COUNT [2]: 13.03 x10E3/uL
- LYMPHOCYTE [2]: 93.33%
- MEAN CORPUSCULAR HEMOGLOBIN [2]: 25.57 pg
- MEAN CORPUSCULAR HEMOGLOBIN CONCENTRATION [2]: 39.52 G/DL
- MEAN CORPUSCULAR VOLUME [2]: 64.65 fL
- MONOCYTE [2]: 0.17%
- NEUTROPHIL [2]: 6.5%
- NUCLEATED RED BLOOD CELLS [2]: 0 /100WBC
- PLATELET COUNT [2]: 931.5 x10E3/uL
- ALANINE AMINOTRANSFERASE [2]: 60.83 u/L
- ALBUMIN [2]: 4.18 G/DL
- ALKALINE PHOSPHATASE [2]: 283.33 u/L
- ASPARTATE AMINOTRANSFERASE [2]: 80.5 u/L
- BLOOD UREA NITROGEN [2]: 11.83 mg/dL
- CARBON DIOXIDE [2]: 35.33 mmol/L
- CHLORIDE [2]: 98.5 MEQ/L
- CHOLESTEROL [2]: 80 mg/dL
- CREATINE PHOSPHOKINASE [2]: 181.83 u/L
- CREATININE [2]: 0.2 mg/dL
- GLUCOSE [2]: 142.67 mg/dL
- LACTATE DEHYDROGENASE [2]: 65.5 u/L
- LIPASE [2]: 9.83 u/L
- PHOSPHORUS [2]: 9.82 mg/dL
- POTASSIUM [2]: 5.69 MEQ/L
- SODIUM [2]: 143.35 MEQ/L
- TOTAL BILIRUBIN [2]: 0.15 mg/dL
- TOTAL PROTEIN [2]: 6.2 G/DL
- URIC ACID [2]: 0.42 mg/dL
- ABSOLUTE EOSINOPHIL [3]: 25.17 CELLS/uL
- ABSOLUTE LYMPHOCYTE [3]: 12416.17 CELLS/uL
- ABSOLUTE MONOCYTE [3]: 214.33 CELLS/uL
- ABSOLUTE SEGMENTED NEUTROPHIL [3]: 1561 CELLS/uL
- BASOPHIL [3]: 0%
- EOSINOPHIL [3]: 0.17%
- ERYTHROCYTE COUNT [3]: 5.72 x10E6/uL
- HEMATOCRIT [3]: 37.97%
- HEMOGLOBIN [3]: 13.92 G/DL
- LEUKOCYTE COUNT [3]: 14.22 x10E3/uL
- LYMPHOCYTE [3]: 87.33%
- MEAN CORPUSCULAR HEMOGLOBIN [3]: 24.38 pg
- MEAN CORPUSCULAR HEMOGLOBIN CONCENTRATION [3]: 36.67 G/DL
- MEAN CORPUSCULAR VOLUME [3]: 66.45 fL
- MONOCYTE [3]: 1.5%
- NEUTROPHIL [3]: 11%
- NUCLEATED RED BLOOD CELLS [3]: 0 /100WBC
- PLATELET COUNT [3]: 1120 x10E3/uL
- ALANINE AMINOTRANSFERASE [3]: 87.17 u/L
- ALBUMIN [3]: 4.02 G/DL
- ALKALINE PHOSPHATASE [3]: 245.5 u/L
- ASPARTATE AMINOTRANSFERASE [3]: 141.33 u/L
- BLOOD UREA NITROGEN [3]: 12.83 mg/dL
- CARBON DIOXIDE [3]: 19 mmol/L
- CHLORIDE [3]: 104 MEQ/L
- CHOLESTEROL [3]: 63.17 mg/dL
- CREATINE PHOSPHOKINASE [3]: 934.5 u/L
- CREATININE [3]: 0.27 mg/dL
- GLUCOSE [3]: 184.33 mg/dL
- LACTATE DEHYDROGENASE [3]: 393.33 u/L
- LIPASE [3]: 8.83 u/L
- PHOSPHORUS [3]: 14.3 mg/dL
- POTASSIUM [3]: 6.23 MEQ/L
- SODIUM [3]: 142.98 MEQ/L
- TOTAL BILIRUBIN [3]: 0.12 mg/dL
- TOTAL PROTEIN [3]: 5.28 G/DL
- URIC ACID [3]: 2.03 mg/dL
